According to EP0162545A2, “Enhanced bioconversion processes” (BETZ EUROPE, INC., priority 1984, dated 1985):
Like-named read-outs stand apart in the source and are kept apart here.

Assays:
Klebsiella = test: Dissolved oxygen removal in nutrient broth; assay type: cell-based; settings: 5 hours
Experimental: Experiments to look at the above conclusions in depth were performed. In these experiments, cultures of Klebsiella were challenged with various concentrations of BNS and the effects on C02 evolution from glucose, viability, TOC (Total Organic Carbon), TIC (Total Inorganic Carbon) production, removal, and DO (Dissolved Oxygen) removal were determined. Concentrations of BNS from 0.05 to 100 µg/mL were used. […] CO2 evolution decreased after 5 gg/mL. […] The viability dropped off after that with 99% inhibition at concentrations somewhere between 10 - 20 µg/mL. Organic carbon removal gave the most puzzling pattern. […] CO2 was produced, however, as reflected by the C02 blowoff experiments and the TIC data. The organic carbon being oxidized (removed) must have been cancelled out by an organic carbon addition caused by limited bacterial lysis. This phenomenon was investigated again. […]
The experiments coordinating the measurements of C02 evolution, TOC reduction, viable count, and dissolved oxygen (DO) reduction were performed as follows: C02 evolution by Klebsiella was measured as described previously using a narrowed set of BNS concentrations. […] These cells were used to inoculate 19 mL quantities of fresh nutrient broth (1 mL inoculum) in baffled shake flasks. […]

E. coli K12 ATCC 25404 = test: Continuous culture (chemostat) biomass yield; assay type: cell-based, Escherichia coli; settings: for inhibition of growth at 5 ppm / inhibition of growth at 2 ppm / inhibition of growth at 1 ppm: Escherichia coli, read-out: % From Control
Experimental: Biomass determinations were by Millipore Filtration using Millipore type H.A. 0.45 µ filters. Samples were centrifuged @ 15,000 x for 10 min., supernatant was filtered through a dried and preweighed filter. The centrifuged pellet was then vortexed in 2 mL of D.I. water and filtered also. Samples were then dried overnight @ 105°C and re-weighed. Biomass was the weight of the dried filter less the tared filter weight.
Glucose determinations were carried out on the centrifuged reactor sample supernatants using glucose enzymatic assay (hexokinase and glucose 6-phosphate dehydrogenase) UV-15 Sigma Chemical Co., St. Louis, MO. (Assay set-up pamphlet accompanies kit). Spectrophotometric measurements were run on a Zeiss PM-6 Spektralphotometer, Carl Zeiss, 7082 Oberkochen, West Germany.
Continuous culture medium was composed of 5 g/1 glucose, 40 mL/1 25 X VBE, and 2.5 mL/1 trace mixture. Bulk medium composed of deionized H20 plus 25X VBE was steam sterilized for 45 min. @ 121°C. Trace mix was autoclaved separately and added aseptically. Glucose was filter sterilized and added last (aseptically).
Bioflo Model C32 Chemostat units (bioreactors) , New Brunswick Scientific, Edison NJ, with a working volume of 1400 mL were utilized for the continuous culture experimentation. pH control on the systems was maintained by Model 5997-20 Horizon pH Controllers. Ingold Sterilizable pH Electrodes, Type 465-35-K9, Andover, MA, were sterilized in place before each run. pH adjustment was by controller addition of sterile 2N NaOH upon demand.
Sterile chemostats vessels were filled to working volume with media seeded with 10 mL of 48 hr. E. coli K12 ATCC 25404 culture grown up overnight in nutrient broth (BBL, Cockeysville, MD) @ 37°C. Reactors were run for 72 hours in the batch mode @ 37°C, and then put into continuous flow. The reactors were run for a minimum of five reactor turnovers before initial sampling to insure a steady state. Sampling was then conducted at a maximum of once/reactor turnover, with a minimum number of 11 reactor turnovers per chemostat run. Both control and BNS containing chemostats were stripped, cleaned and the E. coli culture reestablished (as above) each time before either the BNS concentration or the dilution rate was increased. Eleven reactor turnovers is equivalent to 3.5 days at the highest dilution rate used (minimum time for a chemostat run). Uncoupler Addition to Continuous Culture
BNS stock was composed of 10% BNS, 5% Triton X-114 and 85% carbitol acetate. BNS was diluted in deionized water to the appropriate 10X concentration desired. Breakdown kinetics were measured in a deionized H20/BNS system by spectrophotometric measurement at 320 nm and a BNS half life was determined to be 7 hours. Continuous and separate pumping of uncoupler was by a Masterflex 7552-10 peristalic pump (Cole Parmer, Chicago, IL) through silicon tubing lines into the bioreactor. Feed flow was split 90% organic feed, 10% BNS feed for total flow. New uncoupler feed was made up daily from the previously mentioned stock, since there was only 10% of the original BNS concentration left before the new daily solution of BNS feed was begun. BNS dose of 1, 2 and 5 ppm was based on the total bulk feed. Reservoir solutions were mixed constantly on a Fisher versamix magnetic stir plate at a speed of 0.4/1.0 to prevent settling out of chemical.
Chemostat system parameters were set at pH - 7.0, temper, ature 37°C, aeration 2.0 standard litres per minute (SLPM) and agitation at 300 rpm for all experimentation.
Daily checks were made on system for pH, media flow, NaOH consumption, BNS flow, temperature; agitation speed and aeration rate. Mixed liquor glucose and gravimetric biomass determinations were performed at least 5 times per week. Periodic checks were also made on the organic strength of the influent medium, depending on the frequency of new media make-up.

## O=[N+]([O-])C(Br)=Cc1ccccc1 [BNS, beta-bromo-beta-nitrostyrene]
Klebsiella
  concentrations at which oxygen was consumed at levels approaching control values: up to 2 ppm
E. coli K12 ATCC 25404; 1.0 ppm BNS, Dilution Rate 0.068 hr.^-1
  Biomass Yield: 0.268 g cells/g substrate
E. coli K12 ATCC 25404; 1.0 ppm BNS, Dilution Rate 0.086 hr.^-1
  Biomass Yield: 0.276 g cells/g substrate
E. coli K12 ATCC 25404; 1.0 ppm BNS, Dilution Rate 0.132 hr.^-1
  Biomass Yield: 0.324 g cells/g substrate
E. coli K12 ATCC 25404; 2.0 ppm BNS, Dilution Rate 0.066 hr.^-1
  Biomass Yield: 0.273 g cells/g substrate
E. coli K12 ATCC 25404; 2.0 ppm BNS, Dilution Rate 0.090 hr.^-1
  Biomass Yield: 0.241 g cells/g substrate
E. coli K12 ATCC 25404; 2.0 ppm BNS, Dilution Rate 0.130 hr.^-1
  Biomass Yield: 0.275 g cells/g substrate
E. coli K12 ATCC 25404; 5.0 ppm BNS, Dilution Rate 0.070 hr.^-1
  Biomass Yield: 0.287 g cells/g substrate
E. coli K12 ATCC 25404; 5.0 ppm BNS, Dilution Rate 0.090 hr.^-1
  Biomass Yield: 0.237 g cells/g substrate
E. coli K12 ATCC 25404; 5.0 ppm BNS, Dilution Rate 0.131 hr.^-1
  Biomass Yield: 0.298 g cells/g substrate
E. coli K12 ATCC 25404; ATCC25404, 0.07 h, 5.0 ppm BNS, Dilution Rate 0.070 hr.^-1
  inhibition of growth at 5 ppm: 9.5%
E. coli K12 ATCC 25404; ATCC25404, 0.09 h, 2.0 ppm BNS, Dilution Rate 0.090 hr.^-1
  inhibition of growth at 2 ppm: 26.1%
E. coli K12 ATCC 25404; ATCC25404, 0.09 h, 5.0 ppm BNS, Dilution Rate 0.090 hr.^-1
  inhibition of growth at 5 ppm: 27.3%
E. coli K12 ATCC 25404; ATCC25404, 0.13 h, 2.0 ppm BNS, Dilution Rate 0.130 hr.^-1
  inhibition of growth at 2 ppm: 18.3%
E. coli K12 ATCC 25404; ATCC25404, 1.0 ppm BNS, Dilution Rate 0.068 hr.^-1
  inhibition of growth at 1 ppm: 15.2%
E. coli K12 ATCC 25404; ATCC25404, 1.0 ppm BNS, Dilution Rate 0.086 hr.^-1
  inhibition of growth at 1 ppm: 15%
E. coli K12 ATCC 25404; ATCC25404, 1.0 ppm BNS, Dilution Rate 0.132 hr.^-1
  inhibition of growth at 1 ppm: 3.9%
E. coli K12 ATCC 25404; ATCC25404, 2.0 ppm BNS, Dilution Rate 0.066 hr.^-1
  inhibition of growth at 2 ppm: 13.3%
E. coli K12 ATCC 25404; ATCC25404, 5.0 ppm BNS, Dilution Rate 0.131 hr.^-1
  inhibition of growth at 5 ppm: 11.5%
